Measured values taken from the supplement of paper PMC11061612.

Assays:
Assay in all cases: Bliss excess, mean over the matrix (fraction); higher = more synergy
[1] = system: NCI-H522 (Lung Adenocarcinoma)
Outline: (§1)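 Bliss excess equals the observed combination effect minus the expected value EA + EB − EA·EB, where EA and EB are the effects of each agent alone. Combination Emax is the second-highest inhibition within the matrix. Inhibition was scaled from CellTiter-Glo 2.0 luminescence, with 0 set by vehicle wells and 1 by blank wells, after 72 hours of two-drug dosing of cells plated in 1536-well plates.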

[2] = system: ME-180 (Cervical Carcinoma)
Outline: as §1

[3] = system: NCI-H650 (Lung Adenocarcinoma)
Outline: as §1

[4] = system: Hey (Ovarian Carcinoma)
Outline: as §1

COc1nnc2ccc(N3CCC(c4ccc(OCCN5CCN(C)C(=O)[C@H]5C)cc4)CC3)nn12 [AZD5153] + Cc1c2c(nn1C)CSCc1cc(n(C)n1)CSc1cc(c3ccccc3c1)OCCCc1c(C(=O)O)n(C)c3c-2c(Cl)ccc13 [AZD5991] (first compound max 1 µM, 7x7, partner max 1 µM)
Bliss excess [1]: 0.0012
Bliss excess [2]: -0.0435
Bliss excess [3]: -0.03
Bliss excess [4]: -0.0231

CN(C)CCCOc1ccc(-c2ccc3ncc4c(c3c2)n(C2CCOCC2)c(=O)n4C)cn1 [AZD0156] + O=C(c1cc(Cc2n[nH]c(=O)c3ccccc23)ccc1F)N1CCN(C(=O)C2CC2)CC1 [Olaparib] (first compound max 3 µM, partner max 3 µM)
Bliss excess [1]: -0.0273
Bliss excess [2]: 0.0444
Bliss excess [3]: -0.014
Bliss excess [4]: 0.106

CC1(C)CCC(CN2CCN(c3ccc(C(=O)NS(=O)(=O)c4ccc(NCC5CCOCC5)c([N+](=O)[O-])c4)c(Oc4cnc5[nH]ccc5c4)c3)CC2)=C(c2ccc(Cl)cc2)C1 [Venetoclax] + C1CN(CCC1(C(=O)N[C@@H](CCO)C2=CC=C(C=C2)Cl)N)C3=NC=NC4=C3C=CN4 [Capivasertib] (first compound max 1 µM, 7x7, partner max 3 µM)
Bliss excess [1]: -0.0292
Bliss excess [2]: -0.0015
Bliss excess [3]: -0.0395
Bliss excess [4]: -0.0504

NC1(C(=O)N[C@@H](CCO)c2ccc(Cl)cc2)CCN(c2ncnc3[nH]ccc23)CC1 [Capivasertib] + CC(=O)c1c(C)c2cnc(Nc3ccc(N4CCNCC4)cn3)nc2n(C2CCCC2)c1=O [Palbociclib] (first compound max 10 µM, 7x7, partner max 10 µM)
Bliss excess [1]: -0.0696
Bliss excess [2]: -0.0638
Bliss excess [3]: -0.0413
Bliss excess [4]: 0.0123

CC1(C)CCC(CN2CCN(c3ccc(C(=O)NS(=O)(=O)c4ccc(NCC5CCOCC5)c([N+](=O)[O-])c4)c(Oc4cnc5[nH]ccc5c4)c3)CC2)=C(c2ccc(Cl)cc2)C1 [Venetoclax] + Cc1cc2ncnn2cc1Nc1ncc2c(n1)n(C1CCOCC1)c(=O)n2C [AZD7648] (first compound max 1 µM, 7x7, partner max 10 µM)
Bliss excess [1]: -0.0232
Bliss excess [2]: 0.0013
Bliss excess [3]: -0.0489
Bliss excess [4]: -0.0604

CC1(C)CCC(CN2CCN(c3ccc(C(=O)NS(=O)(=O)c4ccc(NCC5CCOCC5)c([N+](=O)[O-])c4)c(Oc4cnc5[nH]ccc5c4)c3)CC2)=C(c2ccc(Cl)cc2)C1 [Venetoclax] + C[C@@H]1COCCN1C2=NC(=NC(=C2)C3(CC3)[S@](=N)(=O)C)C4=C5C=CNC5=NC=C4 [AZD6738] (first compound max 1 µM, 7x7, partner max 10 µM)
Bliss excess [1]: -0.0099
Bliss excess [2]: 0.0165
Bliss excess [3]: -0.0839
Bliss excess [4]: -0.0378

COc1cccc(OCCCN)c1-c1cc(Nc2cnc(C#N)cn2)n[nH]1 [Prexasertib] + CCc1c2c(nc3ccc(O)cc13)-c1cc3c(c(=O)n1C2)COC(=O)[C@]3(O)CC [SN-38] (first compound max 1 µM, 7x7, partner max 0.3 µM)
Bliss excess [1]: 0.163
Bliss excess [2]: 0.0232
Bliss excess [3]: -0.0227
Bliss excess [4]: -0.0717
